Experimental data reported in US8623896B2, “Insecticidal compounds” (Syngenta Crop Protection, LLC, priority 2007, dated 2014).

Key:
Format in all cases: in vivo
Conditions in all cases: same protocol, 200 ppm
[1] = test system: Tetranychus urticae (Two-Spotted Spider Mite); experiment: Tetranychus urticae bean leaf disc spray test
Text: Bean leaf discs on agar in 24-well microtiter plates were sprayed with test solutions at an application rate of 200 ppm. After drying, the leaf discs are infested with mite populations of mixed ages. 8 days later, discs are checked for egg mortality, larval mortality, and adult mortality.

[2] = test system: Spodoptera littoralis (Egyptian Cotton Leafworm); experiment: Spodoptera littoralis cotton leaf disc spray test
Text: Cotton leaf discs were placed on agar in a 24-well microtiter plate and sprayed with test solutions at an application rate of 200 ppm. After drying, the leaf discs were infested with 5 L1 larvae. The samples were checked for mortality, feeding behavior, and growth regulation 3 days after treatment (DAT).

[3] = test system: Heliothis virescens (Tobacco Budworm); experiment: Heliothis virescens egg test on artificial diet
Protocol: Eggs (0-24 h old) were placed in 24-well microtiter plate on artificial diet and treated with test solutions at an application rate of 200 ppm (concentration in well 18 ppm) by pipetting. After an incubation period of 4 days, samples were checked for egg mortality, larval mortality, and growth regulation.

[4] = test system: Diabrotica balteata (Corn Root Worm); experiment: Diabrotica balteata larvae test on artificial diet
Protocol: A 24-well microtiter plate (MTP) with artificial diet was treated with test solutions at an application rate of 200 ppm (concentration in well 18 ppm) by pipetting. After drying, the MTP's were infested with L2 larvae (6-10 per well). After an incubation period of 5 days, samples were checked for larval mortality and growth regulation.

[5] = test system: Thrips tabaci (Onion Trips); experiment: Thrips tabaci sunflower leaf disc spray test
[6] = test system: Plutella xylostella (Diamond Back Moth); experiment: Plutella xylostella larvae test on artificial diet
Protocol: 24-well microtiter plate (MTP) with artificial diet was treated with test solutions at an application rate of 200 ppm (concentration in well 18 ppm) by pipetting. After drying, the MTP's were infested with L2 larvae (7-12 per well). After an incubation period of 6 days, samples were checked for larval mortality and growth regulation.

Measured: effect on mortality, feeding behavior, or growth regulation

CC1(NC(=O)c2ccc(C3=NOC(c4cc(Cl)cc(Cl)c4)(C(F)(F)F)C3)cc2C#N)CSC1 (stereo not drawn) [A18]
little or no effect: all assays above

Cc1cc(C2=NOC(c3cc(Cl)cc(Cl)c3)(C(F)(F)F)C2)ccc1C(=O)NCC1CCN1Cc1ccccc1 (stereo not drawn) [B2]
little or no effect: all assays above

N#Cc1cc(C2=NOC(c3cc(Cl)cc(Cl)c3)(C(F)(F)F)C2)ccc1C(=O)NC1CSC1 (stereo not drawn) [A19]
little or no effect: all assays above
